Measurements from patent US9981901B2, “IRE-1α inhibitors” (FOSUN ORINOVE PHARMATECH, INC., priority 2007, dated 2018).

How the values were obtained:
[1] = system: RPMI-8226 multiple myeloma cells; test: Proliferation of multiple myeloma cells (CellTiter-Glo); format: cell-based, human; conditions: RPMI8226, 24 hours, 100 μM to 0 μM
Protocol: FIG. 5. Graph showing inhibition of proliferation of multiple myeloma cells by IRE-1α inhibitor 11-28 (Example 11). RPMI-8226 multiple myeloma cells were seeded at 20,000 cells per well in RPMI culture medium containing 1% FBS and the required antibiotics. The plate was incubated overnight at 37° C., 95% air, 5% CO2. The following day, compound 11-28 or medium alone was added to wells, resulting in a final volume of 100 μl per well. The compound concentration ranged from 100 μM to 0 μM, with compounds diluted by a factor of 4. After addition of compound, the plate was incubated at 37° C., 95% air, 5% CO2 for 24 hours. Cell proliferation was measured using the CellTiter-Glo assay (Promega), following the manufacturer's instructions.
Proliferation assays using myeloma cell lines (U266, RPMI8226 and MM.1s) are used to determine ED50. Compounds are used as single agents and in combination with other chemotherapeutic drugs.

[2] = system: phosphorylated IRE-1α and XBP1-splicing in RPMI8226 cells; test: Western blot and RT-PCR of bortezomib-treated RPMI8226 cells; format: cell-based, human; conditions: 24 hour treatment
[3] = system: human myeloma RPMI8226 tumor xenografts; test: RPMI8226 xenograft efficacy model; format: in vivo, mouse; conditions: SCID mice, 0.75 mg/kg IV twice weekly
Protocol: Mice are monitored for tumor growth, regression and general health. Tumors are collected and characterized by immunohistochemistry and/or FACS analysis. Tumor growth is measured by calipers, ultrasound, or by abdominal lavage. Biomarkers in the blood or tumor can evaluated (primarily XBP-1 splicing).

primary murine B cells = test: IgM secretion after LPS stimulation of primary B cells; format: cell-based, mouse; conditions: added at beginning of stimulation and again at 24 hours; all doses down to 100 nM
Protocol: FIG. 9. Inhibition of IgM secretion after LPS stimulation of primary murine B cells with selected IRE-1α inhibitors. […] However, compounds had little effect when at added after 40 hours of stimulation; only slight inhibition at the highest dose. Methods were performed as previously described by Iwakoshi et al., Nature 4, 321-29, 2003 for B cell stimulation, plasma cell differentiation and IgM secretion. Primary B cells were Isolated from BALB/c splenocytes using mouse CD43 Microbeads (Miltenyi cat#130-049-801) with 1×10^6 cells per treatment. Purified B cells were stimulated in B Cell Media at a final density of 1×10^6/ml/well in 24-well plates with 20 μg/ml LPS (Sigma cat# L4391). IRE-1α inhibitor compound 17-1 was added at various concentrations (50 μM, 10 μM, 2 μM, 0.4 μM and 0.08 μM) at specified time points (t=0, t=24 hr, t=40 hr, etc.) Cells were incubated for 48 hr at 37° C. At end of the incubation, cells were spun in a plate at 1500 rpm/3 min. Supernatants were collected for quantitation for IgM secretion using a mouse IgM ELISA Kit (Bethyl Labs cat# E90-101). B Cell medium included RPMI+10% FBS supplemented with NEAA, HEPES, NaPyr, PSQ, and β-mercaptoethanol.

COc1cc(-c2cccs2)cc(C=O)c1O [11-28]
inhibition of cell proliferation [1]: inhibits the proliferation

CC(C)C[C@H](NC(=O)[C@H](Cc1ccccc1)NC(=O)c1cnccn1)B(O)O [bortezomib, [(1R)-3-methyl-1-[[(2S)-1-oxo-3-phenyl-2-[(pyrazinylcarbonyl)amino]propyl]amino]butyl] boronic acid]
XBP1-splicing [2]: increases | levels of phosphorylated IRE-1α [2]: increases | tumor growth [3]: suppression of tumor growth

CN(C)C(=O)c1ccc(-c2ccc3c(C=O)c(O)ccc3c2)cc1 [compound 17-1, 4-(5-formyl-6-hydroxynaphthalen-2-yl)-N,N-dimethylbenzamide]
IgM secretion (primary murine B cells): blocked IgM secretion
